{
  "source": "ChEMBL document CHEMBL5653631",
  "about": "“A Potent and Selective ULK1 Inhibitor Suppresses Autophagy and Sensitizes Cancer Cells to Nutrient Stress” (iScience, 2018)",
  "key": {"[1]": {"target": "T1, Testis-specific serine/threonine-protein kinase 3 (Homo sapiens) (UniProt Q96PN8)", "T1 sequence (whole entry)": "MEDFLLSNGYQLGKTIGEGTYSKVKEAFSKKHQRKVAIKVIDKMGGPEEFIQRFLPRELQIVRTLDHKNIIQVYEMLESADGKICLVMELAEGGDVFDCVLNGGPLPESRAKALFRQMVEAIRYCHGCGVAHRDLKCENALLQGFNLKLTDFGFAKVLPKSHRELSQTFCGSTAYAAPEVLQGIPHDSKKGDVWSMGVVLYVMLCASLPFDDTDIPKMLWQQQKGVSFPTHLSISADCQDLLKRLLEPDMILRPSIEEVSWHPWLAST", "assay": "Inhibition of human recombinant TSSK3 at 500 nM in presence of ATP by radiometric assay relative to control"}, "[2]": {"target": "T2, Ephrin type-B receptor 2 (Homo sapiens) (UniProt P29323)", "T2 sequence (whole entry)": "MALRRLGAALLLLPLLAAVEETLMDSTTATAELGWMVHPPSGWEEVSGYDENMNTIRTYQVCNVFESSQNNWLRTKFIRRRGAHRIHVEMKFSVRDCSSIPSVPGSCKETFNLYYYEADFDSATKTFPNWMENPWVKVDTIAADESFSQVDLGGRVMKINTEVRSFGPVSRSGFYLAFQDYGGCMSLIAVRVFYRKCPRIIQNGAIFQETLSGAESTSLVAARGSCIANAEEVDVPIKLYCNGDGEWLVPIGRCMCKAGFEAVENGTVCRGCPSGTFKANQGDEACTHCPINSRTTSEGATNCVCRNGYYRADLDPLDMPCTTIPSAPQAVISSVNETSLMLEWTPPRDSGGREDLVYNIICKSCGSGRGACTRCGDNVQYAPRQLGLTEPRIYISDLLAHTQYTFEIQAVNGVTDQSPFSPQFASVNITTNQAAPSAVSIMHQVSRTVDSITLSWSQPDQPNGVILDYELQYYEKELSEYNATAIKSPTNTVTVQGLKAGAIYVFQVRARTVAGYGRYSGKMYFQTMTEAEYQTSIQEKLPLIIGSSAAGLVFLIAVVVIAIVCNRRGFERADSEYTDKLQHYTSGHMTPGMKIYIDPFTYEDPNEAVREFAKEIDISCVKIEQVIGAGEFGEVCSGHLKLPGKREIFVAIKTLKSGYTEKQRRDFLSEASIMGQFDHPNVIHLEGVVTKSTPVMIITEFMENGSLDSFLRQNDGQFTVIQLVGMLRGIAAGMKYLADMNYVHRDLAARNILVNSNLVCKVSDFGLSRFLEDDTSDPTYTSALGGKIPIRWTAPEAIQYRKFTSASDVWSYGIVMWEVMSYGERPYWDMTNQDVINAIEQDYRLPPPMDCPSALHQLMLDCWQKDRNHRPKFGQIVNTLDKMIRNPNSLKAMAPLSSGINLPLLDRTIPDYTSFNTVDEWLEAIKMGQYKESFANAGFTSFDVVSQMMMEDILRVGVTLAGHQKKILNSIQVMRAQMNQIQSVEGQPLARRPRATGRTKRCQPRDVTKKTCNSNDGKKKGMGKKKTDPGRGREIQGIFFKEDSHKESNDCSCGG", "assay": "Inhibition of human recombinant EphB2 at 500 nM in presence of ATP by radiometric assay relative to control"}, "[3]": {"target": "T3, MAP kinase-activated protein kinase 5 (Homo sapiens) (UniProt Q8IW41)", "T3 sequence (whole entry)": "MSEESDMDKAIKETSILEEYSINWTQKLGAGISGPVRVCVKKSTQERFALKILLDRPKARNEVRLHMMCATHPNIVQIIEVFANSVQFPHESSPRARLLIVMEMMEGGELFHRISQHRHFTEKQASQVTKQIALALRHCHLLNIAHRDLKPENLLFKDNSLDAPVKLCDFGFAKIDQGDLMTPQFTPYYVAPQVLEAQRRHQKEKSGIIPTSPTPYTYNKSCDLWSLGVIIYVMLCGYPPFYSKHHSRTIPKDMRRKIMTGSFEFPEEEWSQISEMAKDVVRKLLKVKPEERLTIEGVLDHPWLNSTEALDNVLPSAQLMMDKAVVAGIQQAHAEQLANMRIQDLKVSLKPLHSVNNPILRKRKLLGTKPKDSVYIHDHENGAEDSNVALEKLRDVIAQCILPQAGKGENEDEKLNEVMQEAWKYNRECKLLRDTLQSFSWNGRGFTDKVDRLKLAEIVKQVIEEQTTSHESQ", "assay": "Inhibition of human recombinant MAPKAPK5 at 15 nM related to control ULK1"}, "[4]": {"target": "Tyrosine-protein kinase Fer (Homo sapiens) (UniProt P16591)", "sequence (P16591 whole entry, looked up)": "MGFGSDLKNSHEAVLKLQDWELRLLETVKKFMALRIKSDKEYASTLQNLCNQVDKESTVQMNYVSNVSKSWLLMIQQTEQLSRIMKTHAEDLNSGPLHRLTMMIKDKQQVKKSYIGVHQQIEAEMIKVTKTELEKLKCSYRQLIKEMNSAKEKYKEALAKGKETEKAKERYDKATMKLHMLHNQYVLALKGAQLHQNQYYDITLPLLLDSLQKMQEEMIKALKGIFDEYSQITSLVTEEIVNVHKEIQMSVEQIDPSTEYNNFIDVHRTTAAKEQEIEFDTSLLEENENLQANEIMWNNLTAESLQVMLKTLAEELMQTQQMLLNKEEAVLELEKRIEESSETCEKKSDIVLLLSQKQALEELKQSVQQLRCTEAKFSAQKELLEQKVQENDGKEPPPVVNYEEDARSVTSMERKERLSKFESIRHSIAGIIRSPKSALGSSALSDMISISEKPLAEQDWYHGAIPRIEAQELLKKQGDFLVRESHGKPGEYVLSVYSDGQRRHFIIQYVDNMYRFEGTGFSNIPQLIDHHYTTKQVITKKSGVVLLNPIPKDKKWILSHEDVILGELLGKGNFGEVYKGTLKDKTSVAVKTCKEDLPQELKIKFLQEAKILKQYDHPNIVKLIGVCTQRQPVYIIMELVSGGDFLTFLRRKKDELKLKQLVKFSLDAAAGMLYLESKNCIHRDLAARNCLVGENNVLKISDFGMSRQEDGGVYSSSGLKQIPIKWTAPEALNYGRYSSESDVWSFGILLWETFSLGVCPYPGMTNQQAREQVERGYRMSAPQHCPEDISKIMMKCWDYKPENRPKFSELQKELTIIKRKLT", "assay": "Inhibition of human recombinant FER at 15 nM in presence of ATP by radiometric assay relative to control"}, "[5]": {"target": "T4, Serine/threonine-protein kinase ULK2 (Homo sapiens) (UniProt Q8IYT8)", "T4 sequence (whole entry)": "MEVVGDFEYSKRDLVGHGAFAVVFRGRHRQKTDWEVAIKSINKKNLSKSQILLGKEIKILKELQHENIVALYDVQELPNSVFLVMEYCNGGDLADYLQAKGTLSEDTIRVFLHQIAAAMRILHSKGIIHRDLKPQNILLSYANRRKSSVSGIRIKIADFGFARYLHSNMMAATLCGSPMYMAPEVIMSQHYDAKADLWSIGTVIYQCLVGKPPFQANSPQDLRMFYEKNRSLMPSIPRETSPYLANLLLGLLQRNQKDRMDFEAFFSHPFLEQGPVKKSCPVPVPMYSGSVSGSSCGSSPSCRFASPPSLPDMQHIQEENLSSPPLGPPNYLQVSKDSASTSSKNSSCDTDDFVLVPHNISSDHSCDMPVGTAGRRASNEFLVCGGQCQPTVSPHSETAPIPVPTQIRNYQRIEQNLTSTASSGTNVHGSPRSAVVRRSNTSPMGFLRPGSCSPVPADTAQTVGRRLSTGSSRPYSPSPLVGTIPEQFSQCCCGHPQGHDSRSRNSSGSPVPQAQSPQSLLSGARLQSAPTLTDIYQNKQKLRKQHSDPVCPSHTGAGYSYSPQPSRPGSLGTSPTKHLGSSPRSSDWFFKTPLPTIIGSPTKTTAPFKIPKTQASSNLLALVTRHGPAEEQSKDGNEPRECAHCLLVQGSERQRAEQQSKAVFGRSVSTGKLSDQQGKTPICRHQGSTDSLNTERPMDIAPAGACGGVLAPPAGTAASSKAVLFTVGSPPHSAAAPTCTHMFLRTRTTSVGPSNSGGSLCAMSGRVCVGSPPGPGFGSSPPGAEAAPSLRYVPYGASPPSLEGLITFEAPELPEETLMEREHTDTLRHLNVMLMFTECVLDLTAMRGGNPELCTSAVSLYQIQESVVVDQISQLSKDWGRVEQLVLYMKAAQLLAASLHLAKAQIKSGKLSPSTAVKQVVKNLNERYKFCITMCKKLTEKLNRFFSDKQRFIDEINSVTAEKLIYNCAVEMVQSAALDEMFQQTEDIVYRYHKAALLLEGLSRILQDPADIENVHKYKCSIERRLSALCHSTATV", "assay": "Inhibition of human recombinant ULK2 at 40 nM related to control ULK1"}},
  "data": [
    {"compound": "CNC(=O)c1ccccc1Oc1nc(Nc2cc(OC)c(OC)c(OC)c2)ncc1Br", "values": [
      {"measurement": "inhibition", "setting": "[1]", "value": 0, "unit": "%"},
      {"measurement": "inhibition", "setting": "[2]", "value": 15, "unit": "%"}
    ]},
    {"compound": "CC(C)[C@H](NC(=O)c1cc(-c2cnn3cc(-c4ccc(OCCN5CCCCC5)cc4)cnc23)cs1)C(F)(F)F", "values": [
      {"measurement": "fold change (FC)", "setting": "[3]", "value": 0},
      {"measurement": "inhibition", "setting": "[4]", "value": 0, "unit": "%"}
    ]},
    {"compound": "O=C(N[C@@H](C1CC1)C(F)(F)F)c1cc(-c2cnn3cc(-c4ccc(F)cc4)cnc23)cs1", "values": [
      {"measurement": "fold change (FC)", "setting": "[5]", "value": 0.63}
    ]}
  ]
}
